Experimental data: patent US8278293B2, “Diazo bicyclic Smac mimetics and the uses thereof” (The Regents of the University of Michigan, priority 2007, dated 2012)
Where two headings read alike, the source gives them in different places. Blank lines part the entries; values can stand above or below the molecule they belong to.

Experiments:
[1] = test system: ovarian cancer SK-OV-3 cell line; test: Induction of cell death, trypan blue exclusion, SK-OV-3; type: cell-based
Protocol: (§1) The ability of YP-337 to induce cell death was tested in the breast cancer MDA-MB-231 and ovarian cancer SK-OV-3 cell lines (Table 4). Cells were treated with YP-337 for 48 hours and cell viability was determined using the trypan blue exclusion assay.

[2] = test system: MDA-MB-231 human breast cancer cell line; test: Cell growth inhibition, WST-8 assay, MDA-MB-231; type: cell-based
Protocol: (§2) The effect of the compounds of the present invention on the growth of various cancer cell lines was tested. Cells were seeded in 96-well flat bottom cell culture plates at a density of 3000 cells/well with a tested compound and incubated at 37° C. in an atmosphere of 95% air and 5% CO2 for 4 days. […] Dojindo Molecular Technologies, Inc., Gaithersburg, Md.). […] The absorbance of the samples was measured at 450 nm using a ULTRA Tecan Reader (Molecular Device). […] The ability of SM-406 to inhibit cell growth as a single agent was tested in the MDA-MB-231 breast cancer cell line, SK-OV-3 and OVCAR-4 ovarian cancer cell lines and SK-MeI-2 melanoma cancer cell line. Cells were treated for 4 days. Cell growth was determined using a WST-based assay.

[3] = test system: breast cancer MDA-MB-231 cell line; test: Induction of cell death, trypan blue exclusion, MDA-MB-231; type: cell-based
Protocol: as §1

[4] = test system: SK-OV-3 ovarian cancer cell line; test: Cell growth inhibition, WST-8 assay, SK-OV-3; type: cell-based
Protocol: as §2

XIAP BIR3 [5] = target: T1, XIAP BIR3 (Homo sapiens, UniProt P98170); test: Fluorescence polarization (FP) based competitive binding assay to XIAP BIR3; design: human XIAP (residues 241-356) fused to His-tag; His-tag; conditions: FP binding, XIAP BIR3 30 nM, SM5F 5 nM
Target sequence in this assay (P98170 241-356): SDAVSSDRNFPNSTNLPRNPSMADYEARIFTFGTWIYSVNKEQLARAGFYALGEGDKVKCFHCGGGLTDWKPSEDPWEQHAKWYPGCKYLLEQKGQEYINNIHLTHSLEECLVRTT

XIAP BIR3 [6] = target: T1, XIAP BIR3; conditions: background statement; cited from earlier work
Target sequence in this assay (P98170 241-356 limits assumed): as the sequence (P98170 241-356) above

[7] = Homo sapiens, MDA-MB-231, 96 h, 4 days, WST-8, read-out: MDA-MB-231 IC50
[8] = Homo sapiens, SK-OV-3, 96 h, 4 days, WST-8, read-out: SK-OV-3 IC50

Molecule: CN[C@@H](C)C(=O)N[C@H]1CN(C(=O)Cc2ccccc2)CC[C@H]2CC[C@@H](C(=O)NC(c3ccccc3)c3ccccc3)N2C1=O [SM-337]
Approximate % of dead cells after 48 h, SK-OV-3 ([1]; 0.1 nM): ~20% | Approximate % of dead cells after 48 h, SK-OV-3 ([1]; 1 nM): ~40% | Approximate % of dead cells after 48 h, SK-OV-3 ([1]; 10 nM): ~65% | Approximate % of dead cells after 48 h, SK-OV-3 ([1]; 100 nM): ~75% | IC50 ([2]; Homo sapiens, MDA-MB-231, 96 h, read-out: MDA-MB-231 IC50 (μM)): < 1 µM | cellular activity in MDA-MB-231 compared with SM-122 ([2]; relative to SM-122): equal to or better than that of SM-122 | Approximate % of dead cells after 48 h, MDA-MB-231 ([3]; 0.1 nM): ~10% | Approximate % of dead cells after 48 h, MDA-MB-231 ([3]; 1 nM): ~35% | Approximate % of dead cells after 48 h, MDA-MB-231 ([3]; 10 nM): ~60% | Approximate % of dead cells after 48 h, MDA-MB-231 ([3]; 100 nM): ~75% | IC50 ([4]; Homo sapiens, SK-OV-3, 96 h, read-out: SK-OV-3 IC50 (μM)): < 1 µM | cellular activity in SK-OV-3 compared with SM-122 ([4]; relative to SM-122): equal to or better than that of SM-122

IC50 [2, 7]: < 1 µM | IC50 (XIAP BIR3 [5]): < 1000 nM | IC50 [4, 8]: < 1 µM
Molecule: CN[C@@H](C)C(=O)N[C@H]1CN(C(=O)CC2CCCC2)CC[C@H]2CC[C@@H](C(=O)NC(c3ccccc3)c3ccccc3)N2C1=O [SM-405]

IC50 [2, 7]: < 1 µM | IC50 (XIAP BIR3 [5]): < 1000 nM | IC50 [4, 8]: < 1 µM
Molecule: CN[C@@H](C)C(=O)N[C@H]1CN(C(=O)CC(C)C)CC[C@H]2CC[C@@H](C(=O)N[C@@H]3CCCc4ccccc43)N2C1=O [SM-427]

IC50 [2, 7]: < 100 µM | IC50 (XIAP BIR3 [5]): < 1000 nM | IC50 [4, 8]: < 100 µM
Molecule: CN[C@@H](C)C(=O)N[C@H]1CN(C(=O)C[C@@H](O)C(=O)O)CC[C@H]2CC[C@@H](C(=O)NC(c3ccccc3)c3ccccc3)N2C1=O [SM-413]

IC50 [2, 7]: < 1 µM | IC50 (XIAP BIR3 [5]): < 1000 nM | IC50 [4, 8]: < 1 µM
Molecule: CN[C@@H](C)C(=O)N[C@H]1CN(C(=O)Cc2ccc(F)cc2)CC[C@H]2CC[C@@H](C(=O)NCc3ccc(F)cc3)N2C1=O [SM-402]

IC50 [2, 7]: < 1 µM | IC50 (XIAP BIR3 [5]): < 1000 nM | IC50 [4, 8]: < 1 µM
Molecule: CN[C@@H](C)C(=O)N[C@H]1CN(C(=O)Cc2ccccc2)CC[C@H]2CC[C@@H](C(=O)NCc3ccc(F)cc3)N2C1=O [SM-401]

IC50 [2, 7]: < 10 µM | IC50 (XIAP BIR3 [5]): < 1000 nM | IC50 [4, 8]: < 10 µM
Molecule: CN[C@@H](C)C(=O)N[C@H]1CN(C(=O)CC(C)C)CC[C@H]2CC[C@@H](C(=O)NCc3cccc4ccccc34)N2C1=O [SM-430]

IC50 [2, 7]: < 10 µM | IC50 (XIAP BIR3 [5]): < 1000 nM | IC50 [4, 8]: < 10 µM
Molecule: CN[C@@H](C)C(=O)N[C@H]1CN(C(=O)CC(C)C)CC[C@H]2CC[C@@H](C(=O)NCC(c3ccccc3)c3ccccc3)N2C1=O [SM-432]

IC50 [2, 7]: > 1 µM | IC50 (XIAP BIR3 [5]): < 10000 nM | IC50 [4, 8]: > 1 µM
Molecule: CN[C@@H](C)C(=O)N[C@H]1CN(C(=O)CN2CCNC(=O)C2)CC[C@H]2CC[C@@H](C(=O)NC(c3ccccc3)c3ccccc3)N2C1=O [SM-412]

IC50 [2, 7]: < 10 µM | IC50 (XIAP BIR3 [5]): < 1000 nM | IC50 [4, 8]: < 10 µM
Molecule: CCCN[C@@H](C)C(=O)N[C@H]1CN(C(=O)CC(C)C)CC[C@H]2CC[C@@H](C(=O)NC(c3ccccc3)c3ccccc3)N2C1=O [SM-211]

IC50 [2, 7]: < 10 µM | IC50 (XIAP BIR3 [5]): < 1000 nM | IC50 [4, 8]: < 10 µM
Molecule: CN[C@@H](C)C(=O)N[C@H]1CN(C(=O)[C@H]2CC[C@H](O)C2)CC[C@H]2CC[C@@H](C(=O)NC(c3ccccc3)c3ccccc3)N2C1=O [SM-418]

IC50 [2, 7]: < 10 µM | IC50 (XIAP BIR3 [5]): < 1000 nM | IC50 [4, 8]: < 10 µM
Molecule: CC[C@H](NC)C(=O)N[C@H]1CN(C(=O)CC(C)C)CC[C@H]2CC[C@@H](C(=O)NC(c3ccccc3)c3ccccc3)N2C1=O [SM-212]

IC50 [2, 7]: < 1 µM | IC50 (XIAP BIR3 [5]): < 100 nM | IC50 [4, 8]: < 1 µM
Molecule: CN[C@@H](C)C(=O)N[C@H]1CN(C(=O)Cc2ccccc2)CC[C@H]2CC[C@@H](C(=O)NC3CCCc4ccccc43)N2C1=O (stereo partly drawn) [SM-376]

IC50 [2, 7]: < 10 µM | IC50 (XIAP BIR3 [5]): < 1000 nM | IC50 [4, 8]: < 10 µM
Molecule: CN[C@@H](C)C(=O)N[C@H]1CN(C(=O)CC(C)C)CC[C@H]2CC[C@@H](C(=O)NCc3cccc(-c4ccccc4)c3)N2C1=O [SM-429]

IC50 [2, 7]: < 10 µM | IC50 (XIAP BIR3 [5]): < 10000 nM | IC50 [4, 8]: < 10 µM
Molecule: CN[C@@H](C)C(=O)N[C@H]1CN(C(=O)CC(C)C)CC[C@H]2CC[C@@H](C(=O)NCc3ccc(-c4ccccc4)cc3)N2C1=O [SM-434]

IC50 [2, 7]: < 100 µM | IC50 (XIAP BIR3 [5]): < 10000 nM | IC50 [4, 8]: < 100 µM
Molecule: CN[C@@H](C)C(=O)N[C@H]1CN(C(=O)CC(C)C)CC[C@H]2CC[C@@H](CN(Cc3ccccc3)C(C)=O)N2C1=O [SM-230]

IC50 ([2]; 4 days, WST-8, listed as SH-207, read-out: MDA-MB-231 IC50): < 1 µM | IC50 ([2]; 4 days, WST-8, read-out: MDA-MB-231 IC50): < 10 µM | IC50 (XIAP BIR3 [5]): < 1000 nM | IC50 ([4]; 4 days, WST-8, listed as SH-207, read-out: SK-OV-3 IC50): < 1 µM | IC50 ([4]; 4 days, WST-8, read-out: SK-OV-3 IC50): < 10 µM
Molecule: CN[C@@H](C)C(=O)N[C@H]1CN(C(=O)Cc2ccccc2)CCC[C@H]2CC[C@@H](C(=O)NC(c3ccccc3)c3ccccc3)N2C1=O [SM-207]

IC50 [2, 7]: < 10 µM | IC50 (XIAP BIR3 [5]): < 1000 nM | IC50 [4, 8]: < 10 µM
Molecule: CN[C@@H](C)C(=O)N[C@H]1CN(C(=O)C(C)C)CC[C@H]2CC[C@@H](C(=O)NC(c3ccc(F)cc3)c3ccc(F)cc3)N2C1=O [SM-209]

IC50 [2, 7]: < 100 µM | IC50 (XIAP BIR3 [5]): < 1000 nM | IC50 [4, 8]: < 100 µM
Molecule: CN[C@@H](C)C(=O)N[C@H]1CN(C(=O)CCn2ccnc2)CC[C@H]2CC[C@@H](C(=O)NC(c3ccccc3)c3ccccc3)N2C1=O [SM-414]

IC50 [2, 7]: < 1 µM | IC50 (XIAP BIR3 [5]): < 1000 nM | IC50 [4, 8]: < 1 µM
Molecule: CN[C@@H](C)C(=O)N[C@H]1CN(C(=O)CCc2ccc(F)cc2)CC[C@H]2CC[C@@H](C(=O)NC(c3ccc(F)cc3)c3ccc(F)cc3)N2C1=O [SM-404]

IC50 [2, 7]: < 1 µM | IC50 (XIAP BIR3 [5]): < 1000 nM | IC50 [4, 8]: < 1 µM
Molecule: CN[C@@H](C)C(=O)N[C@H]1CN(C(=O)Cc2ccc(F)cc2)CC[C@H]2CCC(C(=O)NC(c3ccccc3)c3ccccc3)N2C1=O (stereo partly drawn) [SM-350]

IC50 [2, 7]: < 1 µM | IC50 (XIAP BIR3 [5]): < 1000 nM | IC50 [4, 8]: < 1 µM
Molecule: CN[C@@H](C)C(=O)N[C@H]1CN(C(=O)CC(C)C)CC[C@H]2CC[C@@H](C(=O)NC3CCc4ccccc43)N2C1=O (stereo partly drawn) [SM-431]

IC50 [2, 7]: < 10 µM | IC50 (XIAP BIR3 [5]): < 1000 nM | IC50 [4, 8]: < 10 µM
Molecule: CC(C)CC(=O)N1CC[C@H]2CC[C@@H](C(=O)NC(c3ccccc3)c3ccccc3)N2C(=O)[C@@H](NC(=O)[C@H](C)NCCO)C1 [SM-213]

IC50 [2, 7]: < 1 µM | IC50 (XIAP BIR3 [5]): < 100 nM | IC50 [4, 8]: < 1 µM
Molecule: CN[C@@H](C)C(=O)N[C@H]1CN(C(=O)Cc2ccc(F)cc2)CC[C@H]2CC[C@@H](C(=O)NC3CCCc4ccccc43)N2C1=O (stereo partly drawn) [SM-377]

IC50 [2, 7]: < 1 µM | IC50 (XIAP BIR3 [5]): < 1000 nM | IC50 [4, 8]: < 1 µM
Molecule: CN[C@@H](C)C(=O)N[C@H]1CN(C(=O)CCc2ccc(F)cc2)CC[C@H]2CC[C@@H](C(=O)NC(c3ccccc3)c3ccccc3)N2C1=O [SM-407]

IC50 [2, 7]: < 10 µM | IC50 (XIAP BIR3 [5]): < 10000 nM | IC50 [4, 8]: < 10 µM
Molecule: CN[C@@H](C)C(=O)N[C@H]1CN(C(=O)CC(C)C)CC[C@H]2CC[C@@H](C(=O)NCc3ccc(C(F)(F)F)cc3)N2C1=O [SM-426]

B1: mature Smac protein: mature Smac/DIABLO polypeptide, endogenous inhibitor of XIAP (protein, UniProt Q9NR28 22-239, looked up)
Diablo IAP-binding …: LCVPVVANFKKRCFSELIRPWHKTVTIGFGVTLCAVPIAQKSEPHSLSSEALMRRAVSLVTDSTSTFLSQTTYALIEAITEYTKAVYTLTSLYRQYTSLLGKMNSEEEDEVWQVIIGARAEMTSKHQEYLKLETTWMTAVGLSEMAAEAAYQTGADQASITARNHIQLVKLQVEEVHQLSRKAETKLAEAQIEELRQKTQEEGEERAESEQEAYLRED
Kd (XIAP BIR3 [6]): 420 nM
